Experiments:
[1] = test system: classical complement pathway; test: CH50 assay, hemolysis of sensitized human red blood cells by zymosan-activated dog serum; assay type: cell-based; settings: Canis lupus familiaris, Erythrocyte, read-out: IC50, protection of human red blood cells from complement attack
Protocol: (§1) To evaluate the strength of blockade of the classical complement pathway achieved by DAS-1 and DAS-2, a standard CH50 assay was employed. Normal human red blood cells were sensitized by incubation overnight with rabbit anti red blood cell antibody. Then dilutions of serum activated by zymosan, with and without various amounts of DAS-1, DAS-2, or the precursor acetylsalicylic acid, were incubated with the sensitized red blood cells for 1 hour at 37° C. The incubates were centrifuged at 5,000 rpm for 10 min. The hemoglobin released into the serum from red blood cells that had been destroyed by complement attack, was determined by reading the optical density (OD) at 405 nm. As a positive control, red blood cells were 100% lysed with water, and as a negative control, no serum was added to the incubate.
(§2) DAS-1 and DAS-2 protected human red blood cells from complement attack by zymogen activated serum of human, rat, cat, and dog. FIG. 3A illustrates the result for DAS-1.

[2] = test system: C3 convertase of the alternative pathway; test: Western blot of red blood cell membranes, alternative pathway with C1 inhibitor (FIG. 5); assay type: cell-based, human; settings: 1 microM; serum 15 fold dilution, zymosan, C1 inhibitor 1.8 micrograms/mL
Protocol: To determine the effects of DAS-1 and DAS-2 on the alternative pathway, further experiments were carried out as shown in FIG. 5. […] To these mixtures human RBCs (5×10^9) were added. The mixtures were incubated for 1 h at 37° C. and centrifuged at 5,000 rpm for […]. The pellets were washed two times with Hank's balanced salt solution (HBSS) and treated with sample loading buffer for SDS-PAGE and immunoblotting. The buffer consisted of 50 mM Tris (pH 6.8), 0.1% SDS, 0.1% bromophenol blue and 10% glycerol. To preserve the molecular complexes that had formed, mild conditions for SDS-PAGE were followed. The sample loading buffer used was 50 mM Tris (pH 6.8), 1% SDS, 0.1% bromophenol blue and 10% glycerol and 2% beta-mercaptoethanol.
However an independent band for C3b was not detected. […] Lanes 3 and 4 show the results obtained in the presence of 1 microM of DAS-1 or DAS-2. […] Instead, strong bands for the earlier steps of PC3b and PC3bB appeared.

[3] = test system: classical complement pathway; test: CH50 assay, hemolysis of sensitized human red blood cells by zymosan-activated cat serum; assay type: cell-based; settings: Felis catus, Erythrocyte, read-out: IC50, protection of human red blood cells from complement attack
Protocol: as §1, §2

[4] = test system: classical complement pathway; test: CH50 assay, hemolysis of sensitized human red blood cells by zymosan-activated human serum; assay type: cell-based; settings: for IC50: Erythrocyte, zymosan-activated human serum, read-out: IC50, protection of human red blood cells from complement attack
Protocol: as §1, §2

C4 = test: Fluorometric binding to immobilized protein (FIG. 6); parameters: species or system human; settings: compound 100 microgm/mL; protein 32 ng/mL
Protocol: (§3) The next set of experiments directly tested the binding of DAS-1 and DAS-2 to properdin, Factor D and complement proteins. These proteins were immobilized on microwell plates in a concentration range of 1-32 ng/mL. DAS-1 and DAS-2 were then added at a concentration of 100 microgm/mL and the solutions incubated as previously described. DAS-1 and DAS-2 binding to the proteins was then assayed according to a previously published fluorometric method except that the excitation frequency was […] and the emission frequency […]. […] Such binding explains why DAS-1 and DAS-2 block the alternative pathway at the stage where Factor D cleaves PC3B to form PC3Bb, and both the classical and alternative pathways at the stage where C9 adds to C5b678. […] There was no binding of DAS-1 or DAS-2 to properdin and only background fluorescence was observed.

[5] = target: T1, C5b-9 membrane attack complex (Homo sapiens, UniProt P02748); test: Western blot of membrane attack complex assembly stage with C6, C7, C8, C9 antibodies (FIG. 4B); assay type: cell-based; settings: western blots probed with antibodies to C6, C7, C8 and C9
T1 construct: from tissue; host or cells: human serum, with human red blood cells as the target membrane
Protocol: To determine at which stage of the complement cascade blockade was occurring, a variation of the CH50 assay was carried out. Instead of measuring hemolysis, western blot analyses of red blood cell membranes were carried out to determine which serum complement proteins were converted into activated complement products that became attached to susceptible membranes. Such attachment only occurs up to the stage of blockade. At stages beyond the blockade, they remain unchanged in the serum. Undiluted human serum was treated for 30 min with DAS-1, DAS-2, or acetyl salicylic acid. Then antibody-conjugated red blood cells in an equal volume were added. The mixtures were incubated at 37° C. for 1 h. They were then treated with a lysis buffer followed by a loading buffer for western blots. Equal amounts of protein from each sample were loaded onto gels and separated by 10% SDS-PAGE. Following SDS-PAGE, proteins were transferred to a PVDF membrane. The membranes were then treated with various primary antibodies followed by labeled secondary antibodies using well established techniques. Bands recognized by the antibodies were visualized by use of an enhanced chemiluminescence system and exposure to photographic film. […] The C6 antibody detected C5b6, C5b67, and C5b678. The C7 antibody detected C5b67 and C5b678, while the C8 antibody detected C5b678. […]

[6] = target: T1, C5b-9 membrane attack complex; test: Western blot of red blood cell membranes, classical pathway (FIG. 4A); assay type: cell-based; settings: zymosan-activated human serum, alternative pathway blocked by antibodies to properdin and Factor D
Protocol: To determine at which stage of the complement cascade blockade was occurring, a variation of the CH50 assay was carried out. Instead of measuring hemolysis, western blot analyses of red blood cell membranes were carried out to determine which serum complement proteins were converted into activated complement products that became attached to susceptible membranes. Such attachment only occurs up to the stage of blockade. At stages beyond the blockade, they remain unchanged in the serum. Undiluted human serum was treated for 30 min with DAS-1, DAS-2, or acetyl salicylic acid. Then antibody-conjugated red blood cells in an equal volume were added. The mixtures were incubated at 37° C. for 1 h. They were then treated with a lysis buffer followed by a loading buffer for western blots. Equal amounts of protein from each sample were loaded onto gels and separated by 10% SDS-PAGE. Following SDS-PAGE, proteins were transferred to a PVDF membrane. The membranes were then treated with various primary antibodies followed by labeled secondary antibodies using well established techniques. Bands recognized by the antibodies were visualized by use of an enhanced chemiluminescence system and exposure to photographic film. For probing the same membrane with different antibodies, the membranes were treated with stripping buffer and then treated as before with a different primary antibody. […] The adjacent lane illustrates the effect of adding to the serum zymosan to activate complement, and antibodies to properdin and Factor D to block the alternative pathway. Sensitized red blood cells then become hemolyzed by classical pathway attack. Native serum proteins are consumed and become incorporated into the red cell membranes. C1q was not metabolized, but the band was intensified due to its dissociation from the C1 complex. Native C3 was no longer detected because it had been cleaved, and the C3b fragment had become covalently attached to the membrane. Its degradation product C3d was detected. C4 was no longer detected because it had similarly been cleaved and the C4b fragment attached to the membrane and metabolized into its degradation product C4d. This fragment was also detected. C5 was cleaved and a band for the C5a product detected. Finally, the C5b-9 membrane attack complex, which had formed on the red cell membrane causing its hemolysis, was detected. The next two lanes show the effects of incubation in the presence of DAS-1, DAS-2. […] This establishes that the block provided by DAS-1 and DAS-2 was at the MAC assembly stage.

[7] = test system: classical complement pathway; test: CH50 assay, hemolysis of sensitized human red blood cells by zymosan-activated rat serum; assay type: cell-based; settings: Erythrocyte, read-out: IC50, protection of human red blood cells from complement attack
Protocol: as §1, §2

Factor B = target: T2, Factor B (Homo sapiens, UniProt P00751); test: Fluorometric binding to immobilized protein (FIG. 6); settings: compound 100 microgm/mL; protein 32 ng/mL
T2 construct: purchased Sigma, St. Louis, MO
Protocol: as §3

C2 = target: T3, C2 (Homo sapiens, UniProt P06681); test: as above; settings: compound 100 microgm/mL; protein 32 ng/mL
T3 construct: purchased Sino Biologicals Inc., Beijing, China
T3 sequence (P06681 21-752): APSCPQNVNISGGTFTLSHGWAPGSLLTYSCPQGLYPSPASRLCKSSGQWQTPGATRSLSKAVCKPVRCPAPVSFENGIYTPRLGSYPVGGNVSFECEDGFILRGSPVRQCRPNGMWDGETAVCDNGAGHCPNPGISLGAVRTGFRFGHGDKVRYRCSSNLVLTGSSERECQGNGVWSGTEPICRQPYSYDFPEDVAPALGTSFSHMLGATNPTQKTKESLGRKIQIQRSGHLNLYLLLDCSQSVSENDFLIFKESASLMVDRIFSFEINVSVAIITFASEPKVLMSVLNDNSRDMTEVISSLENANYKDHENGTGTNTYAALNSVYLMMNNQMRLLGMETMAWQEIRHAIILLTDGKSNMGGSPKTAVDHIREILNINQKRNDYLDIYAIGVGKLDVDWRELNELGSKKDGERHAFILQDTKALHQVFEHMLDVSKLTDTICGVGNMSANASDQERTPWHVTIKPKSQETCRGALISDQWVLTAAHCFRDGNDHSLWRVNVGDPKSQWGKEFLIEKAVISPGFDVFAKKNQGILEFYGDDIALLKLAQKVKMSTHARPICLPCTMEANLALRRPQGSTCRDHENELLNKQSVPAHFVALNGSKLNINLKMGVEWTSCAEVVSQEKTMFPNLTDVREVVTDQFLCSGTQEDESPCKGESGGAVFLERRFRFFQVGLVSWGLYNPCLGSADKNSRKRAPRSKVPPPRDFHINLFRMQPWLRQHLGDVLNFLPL
Protocol: as §3

C6 = target: T4, C6 (Homo sapiens, UniProt P13671); test: as above; settings: compound 100 microgm/mL; protein 32 ng/mL
T4 construct: purchased Sigma, St. Louis, MO
Protocol: as §3

C5 = target: T5, C5 (Homo sapiens, UniProt P01031); test: as above; settings: compound 100 microgm/mL; protein 32 ng/mL
T5 construct: purchased Complement technology Inc., Tyler, TX
Protocol: as §3

C7 = target: T6, C7 (Homo sapiens, UniProt P10643); test: as above; settings: compound 100 microgm/mL; protein 32 ng/mL
T6 construct: purchased Quidel, San Diego, CA
Protocol: as §3

C9 = target: T7, C9 (Homo sapiens, UniProt P02748); test: as above; settings: compound 100 microgm/mL; protein immobilized 1-32 ng/mL
T7 construct: purchased Sigma, St. Louis, MO
Protocol: as §3

properdin = target: T8, properdin (Homo sapiens, UniProt P27918); test: as above; settings: compound 100 microgm/mL; only background fluorescence
T8 construct: purchased Quidel, San Diego, CA
Protocol: as §3

C3 = target: T9, C3 (Homo sapiens, UniProt P01024); test: as above; settings: compound 100 microgm/mL; protein 32 ng/mL
T9 construct: purchased Sigma, St. Louis, MO
Protocol: as §3

Factor D = target: T10, Factor D (Homo sapiens, UniProt P00746); test: as above; settings: compound 100 microgm/mL; protein immobilized 1-32 ng/mL
T10 construct: purchased Quidel, San Diego, CA
Protocol: as §3

C8 = target: T11, C8 (Homo sapiens, UniProt P07357+P07358+P07360); test: as above; settings: compound 100 microgm/mL; protein 32 ng/mL
T11 construct: purchased Sigma, St. Louis, MO
Protocol: as §3

T1 sequence (P02748 22-559, one chain of several): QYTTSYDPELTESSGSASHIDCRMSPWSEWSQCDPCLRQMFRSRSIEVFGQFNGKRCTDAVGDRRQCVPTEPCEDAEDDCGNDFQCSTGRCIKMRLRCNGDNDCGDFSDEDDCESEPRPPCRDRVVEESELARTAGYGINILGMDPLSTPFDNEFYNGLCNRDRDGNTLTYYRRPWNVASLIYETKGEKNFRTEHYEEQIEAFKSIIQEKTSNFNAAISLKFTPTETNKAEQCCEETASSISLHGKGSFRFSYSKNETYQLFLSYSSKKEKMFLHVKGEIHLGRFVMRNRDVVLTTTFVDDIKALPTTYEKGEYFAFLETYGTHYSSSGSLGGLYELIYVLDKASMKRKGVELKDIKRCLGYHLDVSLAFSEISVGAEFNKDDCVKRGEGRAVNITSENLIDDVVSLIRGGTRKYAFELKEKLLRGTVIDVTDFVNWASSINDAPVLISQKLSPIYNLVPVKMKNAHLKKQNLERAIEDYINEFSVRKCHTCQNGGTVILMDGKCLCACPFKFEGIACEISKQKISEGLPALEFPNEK
T8 sequence (P27918 28-469): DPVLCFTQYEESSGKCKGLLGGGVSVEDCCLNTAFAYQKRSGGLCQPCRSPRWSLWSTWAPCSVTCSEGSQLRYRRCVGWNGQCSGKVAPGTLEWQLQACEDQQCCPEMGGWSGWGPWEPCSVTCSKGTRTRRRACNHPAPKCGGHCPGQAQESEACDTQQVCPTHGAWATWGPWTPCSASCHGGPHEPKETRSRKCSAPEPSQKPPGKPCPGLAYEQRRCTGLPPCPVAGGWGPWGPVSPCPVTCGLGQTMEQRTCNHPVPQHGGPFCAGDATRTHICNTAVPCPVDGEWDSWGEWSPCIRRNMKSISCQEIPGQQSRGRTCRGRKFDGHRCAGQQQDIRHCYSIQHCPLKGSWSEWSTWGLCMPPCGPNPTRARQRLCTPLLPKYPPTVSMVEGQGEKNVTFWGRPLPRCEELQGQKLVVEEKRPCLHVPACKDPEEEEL
T5 sequence (P01031 19-1676): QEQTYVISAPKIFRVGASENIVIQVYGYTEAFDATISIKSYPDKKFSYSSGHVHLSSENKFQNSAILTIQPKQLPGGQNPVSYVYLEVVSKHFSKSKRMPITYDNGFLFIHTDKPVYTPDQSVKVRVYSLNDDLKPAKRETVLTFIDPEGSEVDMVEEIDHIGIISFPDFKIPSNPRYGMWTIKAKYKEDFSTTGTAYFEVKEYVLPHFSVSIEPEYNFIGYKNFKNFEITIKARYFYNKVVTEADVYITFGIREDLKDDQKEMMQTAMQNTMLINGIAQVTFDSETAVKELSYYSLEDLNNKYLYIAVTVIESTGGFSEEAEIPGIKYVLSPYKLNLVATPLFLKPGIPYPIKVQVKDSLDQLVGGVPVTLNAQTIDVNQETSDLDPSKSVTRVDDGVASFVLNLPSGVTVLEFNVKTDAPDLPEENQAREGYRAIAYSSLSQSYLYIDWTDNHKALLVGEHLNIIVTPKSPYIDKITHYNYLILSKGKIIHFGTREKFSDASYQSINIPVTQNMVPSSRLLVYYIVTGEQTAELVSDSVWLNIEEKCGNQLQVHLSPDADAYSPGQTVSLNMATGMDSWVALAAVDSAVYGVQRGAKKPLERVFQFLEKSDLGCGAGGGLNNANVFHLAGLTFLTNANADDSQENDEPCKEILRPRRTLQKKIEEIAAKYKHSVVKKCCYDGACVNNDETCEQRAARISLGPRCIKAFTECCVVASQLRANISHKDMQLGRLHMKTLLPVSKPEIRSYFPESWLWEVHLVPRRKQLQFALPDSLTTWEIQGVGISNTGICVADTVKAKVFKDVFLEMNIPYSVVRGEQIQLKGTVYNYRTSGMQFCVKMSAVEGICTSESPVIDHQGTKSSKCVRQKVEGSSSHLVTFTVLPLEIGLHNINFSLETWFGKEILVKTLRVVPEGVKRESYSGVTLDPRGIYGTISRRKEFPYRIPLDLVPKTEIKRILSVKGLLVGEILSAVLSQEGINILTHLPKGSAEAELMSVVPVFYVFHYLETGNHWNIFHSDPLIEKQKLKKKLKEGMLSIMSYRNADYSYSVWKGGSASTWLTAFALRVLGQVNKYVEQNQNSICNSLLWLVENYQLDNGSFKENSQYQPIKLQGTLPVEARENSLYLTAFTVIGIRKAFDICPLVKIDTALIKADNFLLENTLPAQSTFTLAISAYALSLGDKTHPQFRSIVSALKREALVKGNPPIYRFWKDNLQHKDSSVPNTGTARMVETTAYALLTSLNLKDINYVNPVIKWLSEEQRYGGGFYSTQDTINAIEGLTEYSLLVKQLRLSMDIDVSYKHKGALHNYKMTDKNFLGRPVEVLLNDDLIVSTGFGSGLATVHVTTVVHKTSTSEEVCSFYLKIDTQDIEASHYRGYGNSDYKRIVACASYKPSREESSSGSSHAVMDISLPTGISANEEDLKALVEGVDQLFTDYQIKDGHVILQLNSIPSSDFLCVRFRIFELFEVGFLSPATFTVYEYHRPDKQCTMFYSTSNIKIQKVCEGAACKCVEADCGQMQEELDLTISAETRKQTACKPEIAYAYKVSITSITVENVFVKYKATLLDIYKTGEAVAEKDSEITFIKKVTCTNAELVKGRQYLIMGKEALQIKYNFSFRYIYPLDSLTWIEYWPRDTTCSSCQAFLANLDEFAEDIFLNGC
T9 sequence (P01024 23-1663): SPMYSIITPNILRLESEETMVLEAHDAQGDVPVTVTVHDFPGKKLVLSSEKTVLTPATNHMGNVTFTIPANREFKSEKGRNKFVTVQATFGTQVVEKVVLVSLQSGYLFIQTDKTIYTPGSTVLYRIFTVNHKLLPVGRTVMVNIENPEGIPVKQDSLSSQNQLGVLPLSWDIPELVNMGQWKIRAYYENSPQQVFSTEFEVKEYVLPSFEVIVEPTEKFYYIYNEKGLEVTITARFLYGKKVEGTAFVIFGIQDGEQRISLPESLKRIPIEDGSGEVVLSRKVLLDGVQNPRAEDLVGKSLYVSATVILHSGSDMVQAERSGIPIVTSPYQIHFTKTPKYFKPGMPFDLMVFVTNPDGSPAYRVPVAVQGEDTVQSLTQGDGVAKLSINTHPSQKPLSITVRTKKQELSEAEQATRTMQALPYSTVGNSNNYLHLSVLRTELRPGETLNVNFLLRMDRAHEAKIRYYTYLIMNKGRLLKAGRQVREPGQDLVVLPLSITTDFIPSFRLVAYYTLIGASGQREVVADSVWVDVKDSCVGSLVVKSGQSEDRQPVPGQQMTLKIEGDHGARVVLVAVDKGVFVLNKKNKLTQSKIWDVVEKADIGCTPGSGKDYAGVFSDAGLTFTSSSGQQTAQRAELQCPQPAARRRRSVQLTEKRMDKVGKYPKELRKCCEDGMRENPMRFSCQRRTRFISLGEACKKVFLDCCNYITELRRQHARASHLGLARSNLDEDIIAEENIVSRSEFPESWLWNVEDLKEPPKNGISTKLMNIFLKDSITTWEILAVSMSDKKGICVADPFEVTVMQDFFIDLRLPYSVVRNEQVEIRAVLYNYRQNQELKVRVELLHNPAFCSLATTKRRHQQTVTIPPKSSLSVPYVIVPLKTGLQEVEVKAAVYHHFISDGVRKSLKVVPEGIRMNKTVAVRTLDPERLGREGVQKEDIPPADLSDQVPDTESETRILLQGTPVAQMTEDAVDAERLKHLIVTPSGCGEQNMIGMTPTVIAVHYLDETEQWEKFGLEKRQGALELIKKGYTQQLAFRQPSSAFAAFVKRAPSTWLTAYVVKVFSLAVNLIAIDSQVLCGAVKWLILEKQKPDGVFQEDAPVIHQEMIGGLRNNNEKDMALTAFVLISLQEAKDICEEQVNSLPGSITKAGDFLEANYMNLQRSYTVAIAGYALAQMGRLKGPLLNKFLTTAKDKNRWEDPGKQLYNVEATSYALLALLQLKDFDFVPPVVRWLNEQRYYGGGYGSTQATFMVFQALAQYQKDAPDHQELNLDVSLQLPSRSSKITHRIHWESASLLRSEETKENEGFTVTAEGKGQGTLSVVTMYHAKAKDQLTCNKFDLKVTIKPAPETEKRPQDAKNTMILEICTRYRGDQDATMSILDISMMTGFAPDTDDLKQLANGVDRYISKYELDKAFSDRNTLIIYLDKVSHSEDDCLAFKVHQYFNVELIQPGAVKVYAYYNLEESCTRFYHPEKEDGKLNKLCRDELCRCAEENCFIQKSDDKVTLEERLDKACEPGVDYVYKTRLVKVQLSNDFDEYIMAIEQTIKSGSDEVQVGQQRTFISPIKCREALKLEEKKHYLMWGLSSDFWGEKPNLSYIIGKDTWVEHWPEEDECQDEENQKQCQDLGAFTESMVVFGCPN
T10 sequence (P00746 26-253): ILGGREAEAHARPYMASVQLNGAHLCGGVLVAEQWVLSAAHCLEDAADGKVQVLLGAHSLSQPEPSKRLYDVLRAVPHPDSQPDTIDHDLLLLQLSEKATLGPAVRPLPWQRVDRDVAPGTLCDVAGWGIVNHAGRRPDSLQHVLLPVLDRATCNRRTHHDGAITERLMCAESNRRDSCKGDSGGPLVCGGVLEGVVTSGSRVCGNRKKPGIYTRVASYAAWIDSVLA
T7 sequence (P02748 22-559): as the sequence (P02748 22-559, one chain of several) above

Row | Compound | bands for PC3bBb and PC3bBbC3b on RBC membranes [2] | bands for the earlier steps of PC3b and PC3bB on RBC membranes [2] | binding to C4 (C4) | stage at which membrane attack complex formation is arrested [5] | bands for the opsonization steps versus unprotected lane [6] | detection of membrane attack complex on red cell membranes [6] | hemolysis of red cells [6] | binding to Factor B (Factor B) | binding to C2 (C2) | binding to C6 (C6) | binding to C5 (C5) | binding to C7 (C7) | binding to C9 (C9) | binding to properdin (properdin) | binding to C3 (C3) | binding to Factor D (Factor D) | binding to C8 (C8) | further results
1 | CC(=O)Oc1ccc(-c2ccc(OC(C)=O)c(C(=O)O)c2)cc1C(=O)O [DAS-1, 4,4′-diacetoxy-[1,1′-biphenyl]-3,3′-dicarboxylic acid] | did not form | strong bands | did not bind | arrested at the C8 stage | Identical bands | not detected | not hemolyzed | did not bind | did not bind | did not bind | did not bind | did not bind | bound strongly | no binding | did not bind | bound strongly | did not bind | IC50 ([1]; 1 hour at 37° C., OD 405 nm): 142 nM; IC50 ([3]; 1 hour at 37° C., OD 405 nm): 168 nM; IC50 ([4]; 1 hour at 37° C., OD 405 nm): 208 nM; IC50 ([7]; 1 hour at 37° C., OD 405 nm): 294 nM
2 | CC(=O)Oc1ccc(Cc2ccc(OC(C)=O)c(C(=O)O)c2)cc1C(=O)O [DAS-2, 5,5′-methylenebis(2-acetoxybenzoic acid)] | did not form | strong bands | did not bind | same results as in lane 3 | Identical bands | not detected | not hemolyzed | did not bind | did not bind | did not bind | did not bind | did not bind | bound strongly | no binding | did not bind | bound strongly | did not bind | IC50 ([1]; unit inferred): 98 nM; IC50 ([3]; unit inferred): 128 nM; IC50 ([4]; unit inferred): 113 nM; IC50 ([7]; unit inferred): 167 nM
3 | CC(=O)Oc1ccccc1C(=O)O [acetylsalicylic acid, reference compound] |  |  |  |  |  |  |  |  |  |  |  |  |  |  |  |  |  | protective effect against hemolysis (FIG. 3C) ([4]; added at 1 mM, serum species not singled out (FIG. 3 covers human, rat, cat, dog)): no protective effect

From US9751824B2, “Acetyl salicyclic acid dimers, synthesis thereof, and uses thereof to prevent and treat complement-mediated disorders” (Aurin Biotech Inc., priority 2013, dated 2017)
